The source of these data is ChEMBL document CHEMBL5729440, “Compounds and methods for treating oxalate-related diseases” (2022).

This test concerns the target T1, 2-Hydroxyacid oxidase 1 (Homo sapiens, UniProt Q9UJM8).
T1 sequence (Q9UJM8 whole entry): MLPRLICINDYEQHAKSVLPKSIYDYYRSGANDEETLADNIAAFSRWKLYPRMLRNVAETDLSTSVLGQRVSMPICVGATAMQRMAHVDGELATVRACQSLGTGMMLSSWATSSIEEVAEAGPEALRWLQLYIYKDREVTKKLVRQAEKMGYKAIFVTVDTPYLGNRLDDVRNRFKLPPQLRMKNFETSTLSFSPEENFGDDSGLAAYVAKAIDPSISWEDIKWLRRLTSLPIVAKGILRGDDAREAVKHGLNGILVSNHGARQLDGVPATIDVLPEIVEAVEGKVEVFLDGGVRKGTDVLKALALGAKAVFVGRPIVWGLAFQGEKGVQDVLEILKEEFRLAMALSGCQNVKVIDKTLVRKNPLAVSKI
The test can be described thus: In-Vitro Human Glycolate Oxidase (hGOX) Assay: The in-vitro glycolate oxidase assay was performed using recombinant full-length human hydroxyacid oxidase 1 (HAO1), the equivalents of hGOX. The enzyme was obtained from AbCam (Catalog #ab113144) and was purified using conventional chromatography to >95% purity. Purified HAO1 was dissolved in assay buffer consisting of 10 mM NaCl, 110 mM KCl, 2 mM MgCl2, 50 mM HEPES (pH 7.4), and 0.01% Triton™ X-100. The assay used Corning 3575 384-well flat bottom, low flange, non-binding surface, black polystyrene plates.Test compounds in DMSO were preincubated at different concentrations with purified recombinant human GO (6 nM) for 10 min, followed by the addition of glycolate substrate (85 μM) to start the reaction. The plates were incubated for 10 min at room temperature, at which point Amplex red reagent (50 μM) was added.The fluorescence intensity signal was measured on a VariosKan LUX instrument using an excitation of 560 nm and an emission of 590 nm. The IC50 values were calculated using Graphpad Prism.

Structures are written as SMILES.

As usually defined, the IC50 is the concentration that inhibits the measured activity by half. Regarding `CC(C)CC#Cc1cccc(S(=O)(=O)c2[nH]nnc2C(=O)O)c1`, the half-maximal inhibitory concentration (IC50) is 4.7 µM.
